Source: patent EP4556003A1, “ANTI-OBESITY AND ANTI-DIABETIC ACTIVITY OF BROMINATED DITERPENES FROM RED ALGAE OF THE GENUS LAURENCIA AND APPLICATIONS THEREOF” (priority 2023, dated 2025)

Legend:
3T3-L1 preadipocytes = assay: Seahorse XF cell metabolism analysis (extracellular acidification rate); type: cell-based, Mouse; details: 62.5 µM for 24 h
Protocol: Seahorse XF Cell Energy Phenotype Test Kit and Seahorse XF Cell Mito Stress Test Kit were used to measure oxygen consumption rate and extracellular acidification rate on a Seahorse Bioscience XF Analyzer (Agilent Technologies). 3T3-L1 preadipocytes were seeded at 7.5×10^3 per well in growth medium in XF 96 Cell Culture Microplate (Agilent Technologies) two days prior to assay. 24 h prior to the assay, medium was changed and compound 1 was added at concentration of 62.5 µM. The day of the assay, cells were washed once and media was replaced with XF Base Medium (pH 7.4) supplemented with 1 mM pyruvate, 2 mM glutamine and 10 mM glucose. The plate was placed in a 37 °C incubator without CO2 for one hour prior to the assay. Cells were washed a second time right before starting the experiment. After measuring basal oxygen consumption rate and extracellular acidification rate, oligomycin (1.0 µM) and FCCP (1.0 µM) were introduced in real time to measure oxygen consumption rate and extracellular acidification rate under stressed condition. For the baseline extracellular acidification rate the third out of the three baseline measurements was used, while for the stressed condition, the highest measurement after the injections was used. The metabolic potential is calculated as the percentage of stressed extracellular acidification rate to baseline extracellular acidification rate.

[1] = Serum biochemical toxicity markers in high fat diet-fed mice; type: in vivo, C57BL/6 adult male mice; details: intraperitoneal 0.25 mg/mouse every 48 h for 35 days; vs control group
Protocol: (§1) All procedures were conducted in compliance with protocols approved by the Animal Care Committee of the University of Crete, School of Medicine (Facility number EL91-BIOexp-06), in conjunction with the Veterinary Department of the Region of Crete, Heraklion, Crete, Greece. C57BL/6 adult male mice were maintained in a 12 h day/night cycle and 21-23 °C conditions. Mice were provided with water and either normal fat diet, or high fat diet (60% energy from fat) ad libitum. All mice were weighed every 48 h.
(§2) Neorogioldiol was first dissolved in 90% carbowaxTM 400, 10% (v/v) absolute ethanol solution and then diluted 1:10 in water for injection. A dose of 0.25 mg neorogioldiol in a total volume of 200 µl was administered intraperitoneally every 48 h in mice in high fat + neorogioldiol group starting from day 1. 4-5 mice were used per group and each experiment was performed twice.
To detect serum levels of alanine transaminase, aspartate transaminase, creatine phosphokinase and lactate dehydrogenase, serum was collected from peripheral blood via cardiac puncture under isoflurane anesthesia. Serum samples were stored at -80 °C. The levels of alanine transaminase, aspartate transaminase, creatine phosphokinase and lactate dehydrogenase were measured by standard enzymatic procedures using an automated biochemical analyzer AU5800 (Beckman).

[2] = system: cytochrome P450 genes (Cyp1a1, Cyp2b10, Cyp3a11, Cyp3a25); assay: Quantitative PCR of cytochrome P450 genes in liver RNA extracts; type: in vivo, C57BL/6 adult male mice; details: 0.25 mg/mouse i.p. every 48 h for 35 days; vs high-fat diet mice
Protocol: (§3) Adipocytes and preadipocytes were harvested using the TRI Reagent®. RNA isolation was carried out according to the manufacturer's instructions. The purified RNA was quantified using the Nanodrop micro-volume spectrophotometer and 500 ng of each sample were used as a template for reverse transcription. cDNA synthesis was performed using the PrimeScriptTM RT reagent Kit (TaKaRa, RR037A) according to manufacturer's instructions. The cDNA produced by the above described procedure was diluted and used as a template for two-step quantitative PCR in a StepOnePlus™ Real-Time PCR System (Applied Biosystems™, 4376600) for a maximum of 40 cycles, as follows: start step 95 °C for 3 min, repeat steps: 95 °C for 15 s and 60 °C for 30 s. Amplification was performed using KAPA SYBR® FAST Universal qPCR kit (Kapa Biosystems, KK4618) according to manufacturer's instructions. Relative quantitative analysis was accomplished calculating fold-changes of gene expression as 2-(ΔΔCt), where ΔCt is (Ct (gene of interest) - Ct (housekeeping gene)). Ppib was used as internal control gene in 3T3L1 cells and in the fat fraction of mice abdominal fat, Rps9 was used as internal control gene in the stromal vascular fraction of mice abdominal fat and Actb was used as internal control gene in liver samples. Table 1. List of primers used for quantitative real-time PCR analysis.
as §1, §2

abdominal fat = assay: Quantitative PCR in fat fraction and stromal vascular fraction of abdominal fat; type: in vivo, C57BL/6 adult male mice
Protocol: as §3, §1, §2
Abdominal fat lobes were weighed, washed in PBS, minced and dissolved with collagenase. They were incubated in 1.5mg/ml collagenase in 1% PBS-BSA, for 30 min at 37 °C. Next, homogenate was centrifuged at 800 rpm for 5 min at room temperature. The upper fatty phase, which contains the adipocytes, was collected and resuspended in TRI Reagent® and RNA isolation was carried out according to the manufacturer's instructions. The cell pellet, which is the stromal vascular fraction, was washed once with PBS and resuspended in TRI Reagent® for RNA isolation.

[3] = high fat diet + neorogioldiol vs high fat diet mice
[4] = high fat diet + neorogioldiol vs untreated obese mice

neorogioldiol
basal levels of extracellular acidification rate (3T3-L1 preadipocytes): increasing basal levels | metabolic potential (stressed to baseline extracellular acidification rate) (3T3-L1 preadipocytes; after oligomycin and FCCP): decreased the metabolic potential | alanine transaminase in serum [1]: No difference | aspartate transaminase in serum [1]: No difference | creatine phosphokinase in serum [1]: No difference | lactate dehydrogenase in serum [1]: No difference | Cyp1a1 expression in liver RNA extracts [2]: no difference | Cyp2b10 expression in liver RNA extracts [2]: no difference | Cyp3a11 expression in liver RNA extracts [2]: no difference | Cyp3a25 expression in liver RNA extracts [2]: no difference | Arg1 expression in the stromal vascular fraction (abdominal fat; [3]): downregulated | Il10 expression in the stromal vascular fraction (abdominal fat; [3]): downregulated | Adipoq expression in the fat fraction of abdominal fat (abdominal fat; [4]): lower levels | Lep expression in the fat fraction of abdominal fat (abdominal fat; [4]): lower levels
